Laboratory results reported in patent US10703735B2, “4-phenyl-coumarin derivatives, processes for their preparation and uses thereof for the treatment of cancer” (Lead Discovery Center GmbH, priority 2018, dated 2020).

Tests used:
[1] = test system: mitochondrial transcription (7S RNA) in HeLa cells; experiment: Quantitative real time-PCR assay of inhibition of mitochondrial transcription (7S RNA) in HeLa cells; assay type: cell-based; conditions: Homo sapiens, 4 h incubation, Example 5, read-out: cellular qPCR assay IMT (IC-50)
Procedure: Quantitative real-time PCR (qRT-PCR), based on the TaqMan™ (Thermo Fisher Scientific, Waltham Mass.) technology, was carried out essentially as described in (Heid et al. 1996). HeLa cells were plated one day before compound treatment in RPMI medium supplemented with 10% Fetal Calf Serum and 2 mM L-glutamine. Cells were incubated with dilution series of compounds or vehicle (DMSO) for 4 h, prior to harvest and extraction of the RNA using the RNeasy Mini Kit (Qiagen, Hilden D), according to the manufacturer's instructions. RNA concentrations were measured spectroscopically, using a NanoDrop-2000 (Thermo Fisher Scientific, Waltham Mass.) and normalized prior to cDNA synthesis, using a ‘High-Capacity cDNA Reverse Transcription Kit’ (Thermo Fisher Scientific, Waltham Mass.). qRT-PCR was carried out using the ‘TaqMan Fast Advance Master Mix’ (Thermo Fisher Scientific, Waltham Mass.) on a 7500 Fast Real-Time PCR machine (Applied Biosystems, Foster City Calif.)
For these measurements, three genes were used to compare the effect of the scrutinized compounds in relation to their concentration. The POLRMT-gene was used to detect potential influences on nuclear transcription. Mitochondrial transcription in vivo was monitored by measurements 7S RNA. The TBP (TATA-box binding protein) gene was employed as the control (housekeeping gene) during qRT-PCR. The short-lived mitochondrial 7S RNA, which is not post-transcriptionally stabilized, allowed us to monitor rapid changes in mitochondrial transcription activity following compound addition. Biological triplicates were analyzed using the comparative CT Method (ΔΔCt) method (Bubner et al. 2004) and reported as Rq % values (Rq=Relative quantification=2-ΔΔCt).

[2] = molecular target: mitochondrial RNA-polymerase (POLRMT) (Mus musculus, UniProt Q8BKF1); experiment: Homogeneous TR-FRET assay for mitochondrial transcription activity; assay type: biochemical; conditions: homogeneous TR-FRET assay according to Example 4; read-out: mitochondrial transcription activity (IC-50)
How it was run: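 Mouse POLRMT with TFAM and TFB2M transcribes linearized pUC-LSP template after 10 min compound preincubation (10 μM final or dilution series), started with 500 μM each nucleotide, 2 h at RT. EDTA/high-salt stop; RNA product detected by hybridized Eu/ATTO647N probe pair, TR-FRET read at 665 nm (340 nm excitation).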

mitochondrial RNA-polymerase (POLRMT), sequence (Q8BKF1 42-1207): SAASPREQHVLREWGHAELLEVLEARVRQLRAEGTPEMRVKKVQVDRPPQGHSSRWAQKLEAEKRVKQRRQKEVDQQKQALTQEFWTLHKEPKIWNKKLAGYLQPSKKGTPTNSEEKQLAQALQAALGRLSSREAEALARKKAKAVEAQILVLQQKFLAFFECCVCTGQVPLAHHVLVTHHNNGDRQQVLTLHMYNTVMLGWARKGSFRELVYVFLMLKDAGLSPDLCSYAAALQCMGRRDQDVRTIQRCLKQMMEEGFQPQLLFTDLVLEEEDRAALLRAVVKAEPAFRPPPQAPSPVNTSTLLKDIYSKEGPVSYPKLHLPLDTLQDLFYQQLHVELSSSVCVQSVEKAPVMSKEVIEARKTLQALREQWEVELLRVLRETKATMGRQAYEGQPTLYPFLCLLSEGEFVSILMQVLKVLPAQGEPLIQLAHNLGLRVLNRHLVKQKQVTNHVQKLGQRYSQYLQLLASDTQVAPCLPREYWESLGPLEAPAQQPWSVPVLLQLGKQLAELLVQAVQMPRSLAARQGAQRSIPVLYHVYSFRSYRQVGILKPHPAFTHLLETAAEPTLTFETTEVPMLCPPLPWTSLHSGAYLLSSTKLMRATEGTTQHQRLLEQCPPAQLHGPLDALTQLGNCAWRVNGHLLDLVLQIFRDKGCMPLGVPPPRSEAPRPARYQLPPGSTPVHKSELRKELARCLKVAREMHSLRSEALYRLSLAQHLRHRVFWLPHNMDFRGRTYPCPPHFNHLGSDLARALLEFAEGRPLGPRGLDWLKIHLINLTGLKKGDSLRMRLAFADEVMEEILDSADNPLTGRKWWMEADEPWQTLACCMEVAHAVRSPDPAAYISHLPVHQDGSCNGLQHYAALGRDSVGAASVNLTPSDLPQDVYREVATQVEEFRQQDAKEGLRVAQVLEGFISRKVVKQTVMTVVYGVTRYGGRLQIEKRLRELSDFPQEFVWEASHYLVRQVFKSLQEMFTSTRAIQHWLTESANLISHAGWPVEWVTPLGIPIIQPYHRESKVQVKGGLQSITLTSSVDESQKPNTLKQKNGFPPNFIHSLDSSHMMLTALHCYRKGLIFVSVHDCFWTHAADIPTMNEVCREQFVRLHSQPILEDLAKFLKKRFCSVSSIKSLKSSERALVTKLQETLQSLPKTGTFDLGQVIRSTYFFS

| SMILES | IC50 [1] [µM] | IC50 [2] [µM] |
| --- | --- | --- |
| CC(Oc1ccc2c(-c3ccccc3)cc(=O)oc2c1)C(=O)OC(C)(C)C (centres unmarked) [Compound 1, tert-butyl 2-(2-oxo-4-phenyl-chromen-7-yl)oxypropanoate] | < 0.01 | 0.1 to 1 |
| CC(Oc1ccc2c(-c3ccccc3)cc(=O)oc2c1)C(=O)N(C)C (centres unmarked) [Compound 2, N,N-dimethyl-2-(2-oxo-4-phenyl-chromen-7-yl)oxy-propanamide] | 0.01 to 0.05 | 0.1 to 1 |
| CCOC(=O)C(C)Oc1ccc2c(-c3cccc(F)c3)cc(=O)oc2c1 (centres unmarked) [Compound 7, ethyl 2-[4-(3-fluorophenyl)-2-oxo-chromen-7-yl]oxypropanoate] | 0.01 to 0.05 | 0.02 to 0.1 |
| CC(C)NC(=O)C(C)Oc1ccc2c(-c3ccccc3)cc(=O)oc2c1 (centres unmarked) [Compound 12, N-isopropyl-2-(2-oxo-4-phenyl-chromen-7-yl)oxy-propanamide] | 0.05 to 0.5 | 0.1 to 1 |
| COC(=O)C1CCCN(C(=O)C(C)Oc2ccc3c(-c4ccccc4)cc(=O)oc3c2)C1 (centres unmarked) [Compound 15, methyl 1-[2-(2-oxo-4-phenyl-chromen-7-yl)oxypropanoyl]piperidine-3-carboxylate] | 0.05 to 0.5 | 0.1 to 1 |
| CC(Oc1ccc2c(-c3ccccc3)cc(=O)oc2c1)C(=O)N1CCCC(C#N)C1 (centres unmarked) [Compound 19, 1-[2-(2-oxo-4-phenyl-chromen-7-yl)oxypropanoyl]piperidine-3-carbonitrile] | < 0.01 | < 0.02 |
| CCNC(=O)C(C)Oc1ccc2c(-c3ccccc3)cc(=O)oc2c1 (centres unmarked) [Compound 30, N-ethyl-2-(2-oxo-4-phenyl-chromen-7-yl)oxy-propanamide] | 0.05 to 0.5 | 1 to 10 |
| CC(Oc1ccc2c(-c3ccccc3)cc(=O)oc2c1)C(=O)N1CCCC1 (centres unmarked) [Compound 31, 7-(1-methyl-2-oxo-2-pyrrolidin-1-yl-ethoxy)-4-phenyl-chromen-2-one] | 0.05 to 0.5 | 0.1 to 1 |
| CCOC(=O)C(C)(C)Oc1ccc2c(-c3ccccc3)cc(=O)oc2c1 [Compound 32, ethyl 2-methyl-2-(2-oxo-4-phenyl-chromen-7-yl)oxy-propanoate] | 0.01 to 0.05 | 0.1 to 1 |
| CCOC(=O)[C@@H](C)Oc1ccc2c(-c3ccccc3)cc(=O)oc2c1 [Compound 33, ethyl (2R)-2-(2-oxo-4-phenyl-chromen-7-yl)oxypropanoate] | < 0.01 | 0.1 to 1 |
| C[C@@H](Oc1ccc2c(-c3ccccc3)cc(=O)oc2c1)C(=O)N(C)C [Compound 34, (2R)-N,N-dimethyl-2-(2-oxo-4-phenyl-chromen-7-yl)oxy-propanamide] | 0.01 to 0.05 | 0.1 to 1 |
| CCOC(=O)C(C)Oc1ccc2c(-c3ccccc3)cc(=O)oc2c1 (centres unmarked) [Compound 52, ethyl 2-(2-oxo-4-phenyl-chromen-7-yl)oxypropanoate] | 0.05 to 0.5 | 0.1 to 1 |
| CC(C)OC(=O)C(C)Oc1ccc2c(-c3ccccc3)cc(=O)oc2c1 (centres unmarked) [Compound 53, isopropyl 2-(2-oxo-4-phenyl-chromen-7-yl)oxypropanoate] | < 0.01 | 0.02 to 0.1 |
| CCOC(=O)C(C)Oc1ccc2c(-c3ccc(OC)cc3)cc(=O)oc2c1 (centres unmarked) [Compound 65, ethyl 2-[4-(4-methoxyphenyl)-2-oxo-chromen-7-yl]oxypropanoate] | 0.5 to 10 | 1 to 10 |
| NC(=O)COc1cc2oc(=O)cc(-c3ccccc3)c2cc1Cl [Compound 84, 2-(6-chloro-2-oxo-4-phenyl-chromen-7-yl)oxyacetamide] |  | 1 to 10 |
| O=C(O)C1CCCN(C(=O)COc2cc3oc(=O)cc(-c4ccccc4)c3cc2Cl)C1 (centres unmarked) [Compound 85, 1-[2-(6-chloro-2-oxo-4-phenyl-chromen-7-yl)oxyacetyl]piperidine-3-carboxylic acid] |  | 1 to 10 |
| O=C(COc1cc2oc(=O)cc(-c3ccccc3)c2cc1Cl)NC1CCCCCCC1 [Compound 86, 2-(6-chloro-2-oxo-4-phenyl-chromen-7-yl)oxy-N-cyclooctyl-acetamide] |  | 1 to 10 |
| CCOC(=O)C(C)Oc1cc(F)c2c(-c3ccccc3)cc(=O)oc2c1 (centres unmarked) [Compound 87, ethyl 2-(5-fluoro-2-oxo-4-phenyl-chromen-7-yl)oxypropanoate] |  | 1 to 10 |
| O=C(O)COc1cc2oc(=O)cc(-c3ccccc3)c2cc1Cl [Compound 88, 2-(6-chloro-2-oxo-4-phenyl-chromen-7-yl)oxyacetic acid] |  | 1 to 10 |
| CC(Oc1cc2oc(=O)cc(-c3ccccc3)c2cc1Cl)C(=O)NC[C@H]1CC[C@H](C(=O)O)CC1 (some centres unmarked) [Compound 89, 4-[[2-(6-chloro-2-oxo-4-phenyl-chromen-7-yl)oxypropanoylamino]methyl]cyclohexanecarboxylic acid] |  | 1 to 10 |
| O=C(COc1cc2oc(=O)cc(-c3ccccc3)c2cc1Cl)NCC(O)c1ccccc1 (centres unmarked) [Compound 90, 2-(6-chloro-2-oxo-4-phenyl-chromen-7-yl)oxy-N-(2-hydroxy-2-phenyl-ethyl)acetamide] |  | 1 to 10 |
| COC(=O)COc1ccc2c(-c3ccccc3)cc(=O)oc2c1C [Compound 91, methyl 2-(8-methyl-2-oxo-4-phenyl-chromen-7-yl)oxyacetate] |  | 1 to 10 |
| CCCOC(=O)COc1cc2oc(=O)cc(-c3ccccc3)c2cc1Cl [Compound 92, propyl 2-(6-chloro-2-oxo-4-phenyl-chromen-7-yl)oxyacetate] |  | 1 to 10 |
| CC(Oc1ccc2c(-c3ccccc3)cc(=O)oc2c1)C(=O)OCc1ccccc1 (centres unmarked) [Compound 93, benzyl 2-(2-oxo-4-phenyl-chromen-7-yl)oxypropanoate] |  | 1 to 10 |
| Cc1c(OCC(=O)OC(C)(C)C)ccc2c(-c3ccccc3)cc(=O)oc12 [Compound 94, tert-butyl 2-(8-methyl-2-oxo-4-phenyl-chromen-7-yl)oxyacetate] |  | 1 to 10 |
| O=C(COc1cc2oc(=O)cc(-c3ccccc3)c2cc1Cl)NC1C=CS(=O)(=O)C1 (centres unmarked) [Compound 95, 2-(6-chloro-2-oxo-4-phenyl-chromen-7-yl)oxy-N-(1,1-dioxo-2,3-dihydrothiophen-3-yl)acetamide] |  | 1 to 10 |
| CC(Oc1ccc2c(-c3ccccc3)cc(=O)oc2c1)C(=O)NC(C(=O)O)c1ccccc1 (centres unmarked) [Compound 96, 2-[2-(2-oxo-4-phenyl-chromen-7-yl)oxypropanoylamino]-2-phenyl-acetic acid] |  | 1 to 10 |
| CCCc1cc2c(-c3ccccc3)cc(=O)oc2cc1OC(C)C(=O)O (centres unmarked) [Compound 97, 2-(2-oxo-4-phenyl-6-propyl-chromen-7-yl)oxypropanoic acid] |  | 1 to 10 |
| O=C(COc1cc2oc(=O)cc(-c3ccccc3)c2cc1Cl)NC[C@H]1CC[C@H](C(=O)O)CC1 [Compound 98, 4-[[[2-(6-chloro-2-oxo-4-phenyl-chromen-7-yl)oxyacetyl]amino]methyl]cyclohexanecarboxylic acid] |  | 1 to 10 |
| O=C(COc1cc2oc(=O)cc(-c3ccccc3)c2cc1Cl)NCc1ccccn1 [Compound 99, 2-(6-chloro-2-oxo-4-phenyl-chromen-7-yl)oxy-N-(2-pyridylmethyl)acetamide] |  | 1 to 10 |
